Measured values taken from patent publication US20190072562A1, “SYSTEM AND METHOD FOR DETERMINATION OF LIGAND-TARGET BINDING BY MULTI-PHOTON FLUORESCENCE ANISOTROPY MICROSCOPY” (THE GENERAL HOSPITAL CORPORATION, priority 2014, published 2019).

Legend:
NeutrAvidin = target: T1, NeutrAvidin (Gallus gallus, UniProt P02701); assay: Biotin-BODIPY and NeutrAvidin binding by MFAM anisotropy; settings: 10x unlabeled biotin (100 μM)
T1 construct: purchased Thermo Scientific
Description: Biotin was conjugated to Me5-BODIPY (Biotin-BODIPY) and brought to 1 mM stock solution in DMSO. Biotin-BODIPY (10 μM) was mixed with varying concentrations of NeutrAvidin (Thermo Scientific) in PBS with 1% Triton X (Sigma). Each sample was imaged in triplicate as a drop between a microscope slide and cover glass. Measurements of each sample were also performed using single photon excitation in a plate reader. Measurements were also made in the presence of 100 μM free Biotin to competitively compete with the Biotin-BODIPY.

PARP1 [1] = target: T2, PARP1 (Homo sapiens, UniProt P09874); assay: FLIM fluorescence lifetime upon binding to PARP1 in vitro
Description: Fluorescence lifetime imaging was performed using a Zeiss 710 confocal NLO laser scanning system on an upright Zeiss Examiner stand with a 40×NA 1.1 water immersion LD CApochromat objective and a Becker & Hickl TCSPC system. Two-photon excitation was achieved using a Coherent Chameleon Vision II tunable laser (680-1040 nm) that provided 140-femtosecond pulses at a 80-Mhz repetition rate with an output power of 3 W at the peak of the tuning curve (800 nm). Laser scanning was controlled by Zeiss Zen software and set to a pixel dwell time of 1.58 microseconds and 0.9-sec frame rate at 910 nm wavelength excitation.
Enhanced detection of the scattered component of the emitted (fluorescence) photons was afforded by the use of a Becker & Hickl HPM-100-40 hybrid detector, which incorporates the Hamamatsu R10467 hybrid PMT tube Imaging was performed in the dark with blackout enclosure around the microscope to exclude external sources of light during the sensitive period of FLIM measurement. Emitted fluorescence was deflected to the non-descanned light path via a 760+ mirror and emission range was limited to 500-550 nm by a Chroma filter in front of the HPM-100-40 detector. […]
where r0 is the fundamental anisotropy of the dye-dependent on the orientation of the excitation and emission dipole moments. […] The fluorescent microspheres (100% and 30%) had the same fluorescence lifetime, 3.6±0.3 nsec. […]

PARP1 [2] = target: T2, PARP1; assay: MFAM fluorescence anisotropy of free vs PARP1-bound AZD2281-BODIPY FL in solution; type: binding; settings: PARP1 at 1.6x of 5 μM probe, imaging media with 2.5% FBS
Description: AZD2281 labeled with BODIPY FL (AZD2281-BODIPY FL) was prepared as previously described (see Thurber, G. M. et al., Single-cell and subcellular pharmacokinetic imaging allows insight into drug action in vivo, Nat Commun, 4, 1504, (2013), for example). PARP1 (BioVision) was brought up in the manufactures recommended solution and added at 1.6× the concentration of AZD2281-BODIPY FL (5 μM) in imaging media containing 2.5% FBS. Free AZD2281-BODIPY FL (5 μM) (no PARP) in the same imaging media with 2.5% FBS and in DMSO solutions were also made. Images were taken of drops of solution between cover glass.
(§1) Images were analyzed in Matlab (Mathworks) and ImageJ. All anisotropy measurements were calculated from the equation r=(I∥−I⊥)/(I∥+2I⊥). The detector noise of the two photodetectors was subtracted from the whole images before the data were processed. Fluorescence images represent the denominator of the anisotropy equation, which represents the entire fluorescence from the sample. Anisotropy values were obtained by defining a region of interest and measuring the average anisotropy within that region. Regions were extended to fluorescent images to calculate the corresponding intensity. […]

PARP [3] = assay: In vivo MFAM imaging of drug target engagement in HT1080 tumor, mouse dorsal skinfold window chamber
Description: All animal experiments were performed in accordance with the Institutional Animal Care and Use Committee at Massachusetts General Hospital. Female 20-weeks old nude mice (Cox-7, Massachusetts General Hospital) were used. All surgical procedures were conducted under sterile conditions and facilitated through the use of a zoom stereomicroscope (Olympus SZ61). During all surgical procedures and imaging experiments mice were anesthetized by isofluorane vaporization (Harvard Apparatus) at a flow rate of […]: 2 L/minute oxygen. The body temperature of the mice was kept constant at 37° C. during all imaging experiments and surgical procedures. Dorsal skinfold window chambers (DSC) were implanted one day prior to imaging following a well-established protocol. Briefly, the two layers of skin on the back of the mouse were stretched and kept in place by the DSC. One skin layer was surgically removed and replaced by a 12-mm diameter glass cover slip positioned on one side of the DSC allowing for convenient access and imaging of the tumor area. A spacer located on the DSC prevented excessive compression of both tissue and vessel guaranteeing good vascularperfusion within the tumor region.
HT1080 H2B mApple cells were harvested by trypsinization (0.25% trypsin:EDTA) and resuspended in PBS. […]

PARP [4] = target: T3, PARP (Homo sapiens, UniProt P09874); assay: In vitro cellular MFAM imaging of drug target engagement in live cells; type: cell-based
T3 construct: endogenous in cells; host or cells: HT1080
Description: HT1080 cells (ATCC) stably expressing H2B mApple fluorescent protein were cultured in DMEM with 10% FBS, 1% pen-strep and 100 μg/ml geneticin (Invitrogen). HT1080 cells were cultured in DMEM with 10% FBS and 1% pen-strep. […] Cells were plated onto 25 mm #1 cover glass for in vitro imaging.
Cells on 25 mm cover glass were mounted into a closed bath perfusion chamber (Warner Instruments) and perfused with a custom perfusion system that enabled solution switching in the imaging chamber. Cells were imaged in phenol red-free DMEM with 10% FBS and 1% pen-strep. AZD2281-BODIPY FL (1 μM) was perfused into the imaging chamber followed by a washout with drug free media. Images were obtained during the entire time interval at regular time points. For competition experiments, free AZD2281 (5 μM) (Selleck Chemicals) was added to the incubating solution before during and after AZD2281-BODIPY FL addition. Me5-BODIPY was used for fluorophore control experiments.
as §1

T2 sequence (P09874 whole entry): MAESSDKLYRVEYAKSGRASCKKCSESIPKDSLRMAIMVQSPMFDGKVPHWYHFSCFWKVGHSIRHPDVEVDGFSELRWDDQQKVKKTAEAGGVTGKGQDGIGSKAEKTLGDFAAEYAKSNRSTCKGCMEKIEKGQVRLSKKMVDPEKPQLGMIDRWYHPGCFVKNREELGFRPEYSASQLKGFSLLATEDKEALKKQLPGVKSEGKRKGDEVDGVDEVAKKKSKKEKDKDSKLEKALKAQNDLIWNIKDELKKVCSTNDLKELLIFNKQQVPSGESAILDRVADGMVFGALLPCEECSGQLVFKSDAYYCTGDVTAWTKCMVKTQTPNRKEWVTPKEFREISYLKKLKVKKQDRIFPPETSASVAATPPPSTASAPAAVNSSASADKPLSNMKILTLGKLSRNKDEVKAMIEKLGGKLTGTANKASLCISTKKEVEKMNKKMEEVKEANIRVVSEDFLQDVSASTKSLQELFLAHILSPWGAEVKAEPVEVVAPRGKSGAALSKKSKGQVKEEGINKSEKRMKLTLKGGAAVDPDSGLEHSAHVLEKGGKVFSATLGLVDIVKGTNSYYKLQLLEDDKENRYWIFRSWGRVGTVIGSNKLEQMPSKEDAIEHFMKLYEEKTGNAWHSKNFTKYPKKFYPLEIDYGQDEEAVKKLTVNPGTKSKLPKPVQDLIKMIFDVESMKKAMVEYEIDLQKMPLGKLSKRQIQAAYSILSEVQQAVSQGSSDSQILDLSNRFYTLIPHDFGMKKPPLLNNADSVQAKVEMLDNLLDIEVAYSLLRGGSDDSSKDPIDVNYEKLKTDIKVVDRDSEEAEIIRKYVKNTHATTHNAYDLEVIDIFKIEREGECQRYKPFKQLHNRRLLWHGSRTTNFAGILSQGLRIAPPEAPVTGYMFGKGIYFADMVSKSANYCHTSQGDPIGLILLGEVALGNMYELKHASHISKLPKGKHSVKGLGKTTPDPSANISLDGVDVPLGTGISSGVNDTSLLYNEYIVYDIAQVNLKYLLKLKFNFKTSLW
T3 sequence (P09874 2-1014): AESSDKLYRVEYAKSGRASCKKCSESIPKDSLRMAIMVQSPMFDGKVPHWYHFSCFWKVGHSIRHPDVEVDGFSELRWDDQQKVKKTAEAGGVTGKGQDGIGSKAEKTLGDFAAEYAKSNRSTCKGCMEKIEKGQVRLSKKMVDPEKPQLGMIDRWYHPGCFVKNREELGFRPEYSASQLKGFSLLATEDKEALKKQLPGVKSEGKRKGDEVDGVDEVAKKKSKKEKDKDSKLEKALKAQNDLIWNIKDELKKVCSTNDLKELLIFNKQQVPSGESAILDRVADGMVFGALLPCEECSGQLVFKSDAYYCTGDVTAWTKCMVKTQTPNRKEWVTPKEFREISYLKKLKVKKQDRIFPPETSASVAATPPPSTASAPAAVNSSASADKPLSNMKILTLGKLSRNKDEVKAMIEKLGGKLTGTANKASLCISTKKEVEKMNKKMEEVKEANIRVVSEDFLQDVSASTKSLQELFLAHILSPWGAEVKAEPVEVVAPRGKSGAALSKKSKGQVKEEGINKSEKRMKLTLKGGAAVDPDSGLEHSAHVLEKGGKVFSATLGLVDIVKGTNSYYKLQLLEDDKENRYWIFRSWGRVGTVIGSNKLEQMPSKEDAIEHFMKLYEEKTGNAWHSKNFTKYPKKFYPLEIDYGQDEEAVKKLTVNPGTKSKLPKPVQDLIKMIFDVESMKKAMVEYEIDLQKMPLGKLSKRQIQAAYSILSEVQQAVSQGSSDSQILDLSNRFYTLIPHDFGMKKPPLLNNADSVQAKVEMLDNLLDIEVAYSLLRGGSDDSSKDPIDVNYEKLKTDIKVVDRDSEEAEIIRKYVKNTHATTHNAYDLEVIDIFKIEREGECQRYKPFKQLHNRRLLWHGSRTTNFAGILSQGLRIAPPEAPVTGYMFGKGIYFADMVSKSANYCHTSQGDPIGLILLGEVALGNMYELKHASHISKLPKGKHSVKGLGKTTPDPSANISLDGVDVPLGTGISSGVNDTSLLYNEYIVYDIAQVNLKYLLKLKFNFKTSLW
T1 sequence (P02701 25-152): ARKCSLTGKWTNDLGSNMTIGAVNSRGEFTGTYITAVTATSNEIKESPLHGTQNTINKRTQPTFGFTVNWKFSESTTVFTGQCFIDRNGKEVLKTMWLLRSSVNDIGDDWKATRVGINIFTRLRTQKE

SMILES | anisotropy increase of Biotin-BODIPY in presence of unlabeled competitor (NeutrAvidin) | fluorescence lifetime (PARP1 [1]; bound to PARP1) | fluorescence lifetime (PARP1 [1]; unbound) | anisotropy of target-bound over free or intracellular drug (PARP1 [2]) | nuclear anisotropy over time in vivo (PARP [3]; after intravenous infusion vs 34 minutes later) | binding to PARP in the nucleus in vivo (PARP [3]; intravenous, implanted HT1080 H2B mApple tumor) | localisation of bound drug (high anisotropy) (PARP [4]; HT1080 cells incubated with probe) | bound drug after extended washing cycles (PARP [4]; HT1080 cells, after washing) | target binding in the cytoplasm (PARP [4]; HT1080 cells, loading and washing)
O=C(O)CCCC[C@@H]1SC[C@@H]2NC(=O)N[C@@H]21 [biotin] | suppressed | – | – | – | – | – | – | – | –
Cc1cc(C)n2c1C=C1C=CC(CCC(=O)N3CCN(C(=O)c4cc(Cc5n[nH]c(=O)c6ccccc56)ccc4F)CC3)=[N+]1[B-]2(F)F [AZD2281-BODIPY FL] | – | 3.3±0.3 nsec | 4.1±0.3 nsec | significant increase in anisotropy | the nuclear anisotropy increased | occurred immediately upon drug infusion | bound drug was present in the nucleus | the nuclear, bound drug remains | no target binding
